According to patent publication US20260242478A1, “ANTIBODIES FOR TARGETING PSMA AND CD28 AND USES THEREOF” (Janux Therapeutics, Inc., priority 2023, published 2026):

Assays:
[1] = target: anti-CD28 Fab (SEQ ID NOs: 696, 697); assay: anti-CD28 Fab binding to peptides, ELISA; conditions: Table 24; anti-CD28 Fab
[2] = target: anti-CD28 scFv (disulfide) (SEQ ID NO: 10); assay: anti-CD28 scFv (disulfide) binding to peptides, ELISA; conditions: Table 27
Description: Peptides were evaluated for their ability to bind to ant-CD28 Fab (SEQ ID NOs: 696.697) or anti-CD28 scFv (disulfide) (SEQ ID NO: 10) in a standard ELISA format as described above.

[3] = tested on: PSMA Fab (SEQ ID NOs: 19, 20) binding to the PSMA antigen; assay: Inhibition of PSMA Fab binding to PSMA by peptides, competition ELISA (incl. alanine scanning); design: key to Mutation Status: tolerant (T); somewhat tolerant (ST); intolerant (IT)
Chain of PSMA Fab (SEQ ID NOs: 19, 20) binding to the PSMA antigen (as listed by the source): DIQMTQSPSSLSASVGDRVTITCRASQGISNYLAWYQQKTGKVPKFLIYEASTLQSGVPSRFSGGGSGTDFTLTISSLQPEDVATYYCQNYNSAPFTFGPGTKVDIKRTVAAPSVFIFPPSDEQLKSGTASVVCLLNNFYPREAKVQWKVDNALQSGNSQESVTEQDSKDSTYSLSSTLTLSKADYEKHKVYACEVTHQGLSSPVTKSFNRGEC
Chain of PSMA Fab (SEQ ID NOs: 19, 20) binding to the PSMA antigen (as listed by the source): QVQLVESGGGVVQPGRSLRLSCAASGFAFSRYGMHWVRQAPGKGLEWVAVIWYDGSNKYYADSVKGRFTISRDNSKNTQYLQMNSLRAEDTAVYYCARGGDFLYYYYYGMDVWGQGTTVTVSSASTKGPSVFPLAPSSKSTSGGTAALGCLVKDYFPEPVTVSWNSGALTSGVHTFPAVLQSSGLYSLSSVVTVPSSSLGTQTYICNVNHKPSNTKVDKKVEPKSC
Chain of PSMA Fab (SEQ ID NOs: 19, 20) binding to the PSMA antigen (Q04609 whole entry partner): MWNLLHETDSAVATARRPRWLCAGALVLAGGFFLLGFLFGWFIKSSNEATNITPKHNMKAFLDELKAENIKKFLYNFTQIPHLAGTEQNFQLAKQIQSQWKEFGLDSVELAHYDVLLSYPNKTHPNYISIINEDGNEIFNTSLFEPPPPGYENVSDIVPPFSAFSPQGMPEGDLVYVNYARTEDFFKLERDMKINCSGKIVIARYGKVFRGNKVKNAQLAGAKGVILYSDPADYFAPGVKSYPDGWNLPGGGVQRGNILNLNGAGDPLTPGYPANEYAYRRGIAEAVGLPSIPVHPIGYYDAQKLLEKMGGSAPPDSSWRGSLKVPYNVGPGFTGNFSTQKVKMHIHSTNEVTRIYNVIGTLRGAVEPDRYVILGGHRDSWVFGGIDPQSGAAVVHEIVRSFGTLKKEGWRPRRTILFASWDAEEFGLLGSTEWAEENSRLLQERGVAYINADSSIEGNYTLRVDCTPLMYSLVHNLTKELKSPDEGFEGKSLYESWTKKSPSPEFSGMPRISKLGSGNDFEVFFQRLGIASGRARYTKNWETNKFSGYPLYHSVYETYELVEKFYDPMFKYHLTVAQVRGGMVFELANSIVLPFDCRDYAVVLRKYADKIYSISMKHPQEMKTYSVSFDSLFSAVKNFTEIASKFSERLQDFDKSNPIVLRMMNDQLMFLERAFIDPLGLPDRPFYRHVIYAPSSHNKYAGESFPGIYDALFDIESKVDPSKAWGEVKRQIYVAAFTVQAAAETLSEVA
Description: PSMA Fab fixed at 0.3 nanomolar (nM) concentration was pre-incubated with 0-100 micromolar (μM) titrated peptides. After a short pre-incubation period, the mixture of titrated peptide with fixed PSMA Fab were added to the PSMA antigen coated plates. After a short incubation on the plates, bound PSMA Fab was detected with a standard horse radish peroxidase conjugated secondary antibody.
The tables also designate each alanine mutation as tolerant (T), somewhat tolerant (ST), or intolerant (IT) based on changes in binding inhibition ability relative to the non-mutated peptide. Cys-5 and Cys-11 of peptide-179 and peptide-180 were not mutated.

[4] = target: PSMA Fab (SEQ ID NOs: 19, 20); assay: PSMA Fab binding to peptides, ELISA; conditions: PSMA Fab binding to biotinylated peptide, ELISA
Description: Peptides of Table 9 were evaluated for their ability to bind to PSMA Fab in a standard enzyme linked immunosorbent assay (ELISA) format. […] PSMA Fab diluted in buffer was then added to the peptide captured plates. Bound antibody was detected using a standard horse radish peroxidase conjugate secondary antibody.

[5] = Table 41, alanine scanning of Peptide-180, change in binding inhibition relative to non-mutated peptide
[6] = Table 40, alanine scanning of Peptide-179, change in binding inhibition relative to non-mutated peptide
[7] = Table 40, competition binding ELISA, alanine scanning sequences of Peptide-179
[8] = Table 38, PSMA Fab fixed at 0.3 nM, peptide 0-100 μM
[9] = Table 39, PSMA Fab fixed at 0.3 nM, peptide 0-100 μM
[10] = Table 41, competition binding ELISA, alanine scanning sequences of Peptide-180
[11] = Table 37, PSMA Fab fixed at 0.3 nM, peptide 0-100 μM

Chain of anti-CD28 Fab (SEQ ID NOs: 696, 697) (as listed by the source): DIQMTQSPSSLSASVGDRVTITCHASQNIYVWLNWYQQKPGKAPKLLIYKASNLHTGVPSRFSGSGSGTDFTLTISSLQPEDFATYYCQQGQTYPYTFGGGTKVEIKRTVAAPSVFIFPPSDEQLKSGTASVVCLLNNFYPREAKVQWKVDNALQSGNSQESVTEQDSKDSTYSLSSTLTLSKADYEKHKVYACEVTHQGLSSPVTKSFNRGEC
Chain of anti-CD28 Fab (SEQ ID NOs: 696, 697) (as listed by the source): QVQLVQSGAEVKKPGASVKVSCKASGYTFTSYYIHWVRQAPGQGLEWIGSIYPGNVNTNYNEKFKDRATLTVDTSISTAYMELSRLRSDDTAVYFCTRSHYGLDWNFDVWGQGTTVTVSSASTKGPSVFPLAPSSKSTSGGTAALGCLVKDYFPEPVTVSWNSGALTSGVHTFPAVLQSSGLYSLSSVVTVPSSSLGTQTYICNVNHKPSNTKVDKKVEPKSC
Chain of anti-CD28 scFv (disulfide) (SEQ ID NO: 10) (as listed by the source): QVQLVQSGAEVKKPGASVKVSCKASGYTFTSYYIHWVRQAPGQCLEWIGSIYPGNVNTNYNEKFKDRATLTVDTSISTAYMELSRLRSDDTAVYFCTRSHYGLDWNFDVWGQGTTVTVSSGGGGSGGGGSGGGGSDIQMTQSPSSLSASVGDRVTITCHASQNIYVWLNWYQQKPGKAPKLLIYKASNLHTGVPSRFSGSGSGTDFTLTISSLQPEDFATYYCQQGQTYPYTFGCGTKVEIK

In the case of GCQYPWAFDAMSCP [Peptide-80], the EC50 [1] is reported as over 1000 nM and the EC50 [2] is reported as over 1000 nM.

IAVLCQPNWMCAAF [Peptide-259] was tested, and the “Mutation Status” value [3, 5] was “ST”.

With YECHQGLFHRWCVN [Peptide-158] the “Binding EC50” value ([4]; Table 37) was “high background”.

For LMKWCTPRAMCAAE [Peptide-248], the “Mutation Status” value [3, 6] was “IT” and the IC50 [3, 7] was over 100000 nM.

Substance IECAYMTDQRFWCW [Peptide-188] has an EC50 ([4]; Table 38) of over 3000 nM.

YWSCFQIPFTCFYF [Peptide-75] showed an EC50 [1] of over 1000 nM and an EC50 [2] of over 1000 nM.

Substance IRCVGEGHDLVCIF [Peptide-184] has an EC50 ([4]; Table 38) of over 3000 nM and an IC50 [3, 8] of over 100000 nM.

Work on SCGWLRGEEFGWWC [Peptide-177] yielded an EC50 ([4]; Table 37) of over 1000 nM.

With FWECYSSFCRFVEG [Peptide-196] the IC50 [3, 9] was over 100000 nM.

YCWVDADMWLIFRC [Peptide-199] was tested, and the IC50 [3, 9] was over 100000 nM.

For ILCGLYEALVSECG [Peptide-187], the EC50 ([4]; Table 38) was over 3000 nM and the IC50 [3, 8] was over 100000 nM.

Work on HCKFHDYHSWYMCY [Peptide-175] yielded an EC50 ([4]; Table 37) of over 1000 nM.

MEYCSFHRFTCVLW [Peptide-174] was tested, and the EC50 ([4]; Table 37) was over 1000 nM.

IAVLCQPNWACAGF [Peptide-258] was tested, and the “Mutation Status” value [3, 5] was “IT” and the IC50 [3, 10] was over 100000 nM.

For WCWDYKLWVPTQCP [Peptide-81], the EC50 [1] was over 1000 nM and the EC50 [2] was over 1000 nM.

Substance MCFVTGWGVPDDCN [Peptide-208] has an IC50 [3, 9] of over 100000 nM.

PLCGTEEVWWECRL [Peptide-166] showed an EC50 ([4]; Table 37) of over 1000 nM.

In the case of ICQWIGATNAWVCY [Peptide-164], the “Binding EC50” value ([4]; Table 37) is reported as “high background” and the IC50 [3, 11] is reported as over 100000 nM.

In the case of IAALCQPNWMCAGF [Peptide-252], the “Mutation Status” value [3, 5] is reported as “T”.

With PLCGTEEVWWECRL [Peptide-197] the IC50 [3, 9] was over 100000 nM.

For VEVKCFPLWFCVGL [Peptide-275], the IC50 ([3]; Table 42, SAR guided optimization phage library of peptide-180) was over 100000 nM.

LCQWYPKFHWMDCD [Peptide-210] gave an IC50 [3, 9] of over 100000 nM.

Work on DCPWLSGFSRPLLC [Peptide-93] yielded an EC50 [1] of over 1000 nM and an EC50 [2] of over 1000 nM.

In the case of FCGWMDGDVFWFCG [Peptide-171], the EC50 ([4]; Table 37) is reported as over 1000 nM.

EGCLTLVDGRAWCW [Peptide-173] was tested, and the EC50 ([4]; Table 37) was over 1000 nM.

With PDCHTILFKPWCVR [Peptide-90] the EC50 [1] was over 1000 nM and the EC50 [2] was over 1000 nM.

For FCNWVDGDVWVVCK [Peptide-172], the EC50 ([4]; Table 37) was over 1000 nM.

With AAVLCQPNWMCAGF [Peptide-251] the “Mutation Status” value [3, 5] was “T”.

LMKWCTPAWMCAAE [Peptide-247] was tested, and the “Mutation Status” value [3, 6] was “T”.

For LMKACTPRWMCAAE [Peptide-244], the “Mutation Status” value [3, 6] was “ST”.

FCQWIEATNAWLCY [Peptide-170] was tested, and the EC50 ([4]; Table 37) was over 1000 nM.

In the case of AMKWCTPRWMCAAE [Peptide-241], the “Mutation Status” value [3, 6] is reported as “T”.

For WCWDYKLWVPMTCP [Peptide-85], the EC50 [1] was over 1000 nM and the EC50 [2] was over 1000 nM.

Substance HCLGPALGPVDGDC [Peptide-189] has an EC50 ([4]; Table 38) of over 3000 nM and an IC50 [3, 8] of over 100000 nM.

In the case of TCLRFADLAIIHCD [Peptide-160], the EC50 ([4]; Table 37) is reported as over 1000 nM.

Substance DCFYAADIHWNYCN [Peptide-157] has an EC50 ([4]; Table 37) of over 1000 nM.

For Peptide-2687 (LMAWCTPRWMCAAE), the “Mutation Status” value [3, 6] was “ST”.

In the case of DCWWMFESYPGRCI [Peptide-86], the EC50 [1] is reported as over 1000 nM and the EC50 [2] is reported as over 1000 nM.

FGHCAGSPVFCAYW [Peptide-168] was tested, and the EC50 ([4]; Table 37) was over 1000 nM.

WCWVQDDRRHVVCG [Peptide-201] gave an IC50 [3, 9] of over 100000 nM.

In the case of HCLWHESSGRVLCF [Peptide-192], the IC50 [3, 9] is reported as over 100000 nM.

MEYCSFHRFTCVLW [Peptide-183] gave an IC50 [3, 8] of over 100000 nM.

Work on PDCQTILFKPWCVR [Peptide-78] yielded an EC50 [1] of over 1000 nM and an EC50 [2] of over 1000 nM.

SIPCIPRDWLCPIK [Peptide-182] showed an EC50 ([4]; Table 38) of over 3000 nM and an IC50 [3, 8] of over 100000 nM.

For LAKWCTPRWMCAAE [Peptide-242], the “Mutation Status” value [3, 6] was “T”.

FVPCIPSHWLCPIW [Peptide-191] was tested, and the IC50 [3, 9] was over 100000 nM.

Work on SIPCIPRDWLCPIK [Peptide-163] yielded an EC50 ([4]; Table 37) of over 1000 nM.

Work on ACHSLVLKHHLQKC [Peptide-176] yielded an EC50 ([4]; Table 37) of over 1000 nM.

ECHWSMWAVGHACF [Peptide-83] showed an EC50 [1] of over 1000 nM and an EC50 [2] of over 1000 nM.

NAHCWLWVPAHCRV [Peptide-167] gave an EC50 ([4]; Table 37) of over 1000 nM and an IC50 [3, 11] of over 100000 nM.

For IAVLCAPNWMCAGF [Peptide-254], the “Mutation Status” value [3, 5] was “T”.

Substance EPKWCVPRGLCNYD [Peptide-240] has an IC50 ([3]; Table 43, SAR guided optimization phage library of peptide-179) of over 100000 nM.

YECHQGLFHRWCVN [Peptide-185] showed an EC50 ([4]; Table 38) of over 3000 nM.

With LMKWCTARWMCAAE [Peptide-246] the “Mutation Status” value [3, 6] was “IT” and the IC50 [3, 7] was over 100000 nM.

FVCWTFGEHIKVCR [Peptide-186] was tested, and the EC50 ([4]; Table 38) was over 3000 nM and the IC50 [3, 8] was over 100000 nM.

For LMKWCTPRWMC [Peptide-250], the “Mutation Status” value [3, 6] was “T” and the IC50 [3, 7] was 6640 nM.

IRCVGEGHDLVCIF [Peptide-162] was tested, and the EC50 ([4]; Table 37) was over 1000 nM.

WCWYYREWVPMTCP [Peptide-88] showed an EC50 [1] of over 1000 nM and an EC50 [2] of over 1000 nM.

For NCWWHDFRAGHVVC [Peptide-161], the EC50 ([4]; Table 37) was over 1000 nM.

In the case of IAVACQPNWMCAGF [Peptide-253], the “Mutation Status” value [3, 5] is reported as “ST”.

SCGWLRGEEFGWWC [Peptide-190] gave an EC50 ([4]; Table 38) of over 3000 nM and an IC50 [3, 8] of over 100000 nM.

Substance YCAGMSTIQLWLKC [Peptide-94] has an EC50 [1] of over 1000 nM and an EC50 [2] of over 1000 nM.

With IAVLCQPNWMCAGA [Peptide-260] the “Mutation Status” value [3, 5] was “ST”.

With IAVLCQPAWMCAGF [Peptide-256] the “Mutation Status” value [3, 5] was “T”.

FMCLPQNPHPLCFK [Peptide-77] showed an EC50 [1] of over 1000 nM and an EC50 [2] of over 1000 nM.

HCEFHDYQSCDVLY [Peptide-211] was tested, and the IC50 [3, 9] was over 100000 nM.

Substance PELRCVPFWMCSFN [Peptide-181] has an EC50 ([4]; Table 38) of 3 nM.

WCWDYREWVPMTCP [Peptide-82] was tested, and the EC50 [1] was over 1000 nM and the EC50 [2] was over 1000 nM.

YCAGHSPINIGKCL [Peptide-84] gave an EC50 [1] of 337 nM and an EC50 [2] of over 1000 nM.

For PDCVYHSFWGYSCR [Peptide-178], the EC50 ([4]; Table 37) was over 1000 nM.

YWYCSPSIVRCVLV [Peptide-89] gave an EC50 [1] of over 1000 nM and an EC50 [2] of over 1000 nM.

In the case of LMKWCTPRWACAAE [Peptide-249], the “Mutation Status” value [3, 6] is reported as “IT” and the IC50 [3, 7] is reported as over 100000 nM.

In the case of WICDKSGSIMLCRA [Peptide-91], the EC50 [1] is reported as over 1000 nM and the EC50 [2] is reported as over 1000 nM.

In the case of IAVLCQPNAMCAGF [Peptide-257], the “Mutation Status” value [3, 5] is reported as “IT” and the IC50 [3, 10] is reported as over 100000 nM.

SCFSFARLEVVPCD [Peptide-159] showed an EC50 ([4]; Table 37) of over 1000 nM.

Substance HLFCWEGSDRCAWV [Peptide-165] has an EC50 ([4]; Table 37) of over 1000 nM.

With ACDTYFAGMINECF [Peptide-79] the EC50 [1] was 97 nM and the EC50 [2] was 73.2 nM.

In the case of IAVLCQANWMCAGF [Peptide-255], the “Mutation Status” value [3, 5] is reported as “IT” and the IC50 [3, 10] is reported as over 100000 nM.

For NCFFAADIHWNFCT [Peptide-169], the EC50 ([4]; Table 37) was over 1000 nM.

For MEYCSFHRFTCVLW [Peptide-193], the IC50 [3, 9] was over 100000 nM.

LCEWWTSHVDAWCA [Peptide-213] showed an IC50 [3, 9] of over 100000 nM.

WECLKYTEANACTY [Peptide-76] showed an EC50 [1] of over 1000 nM and an EC50 [2] of over 1000 nM.

In the case of LMKWCAPRWMCAAE [Peptide-245], the “Mutation Status” value [3, 6] is reported as “ST”.
